Laboratory results: patent publication US6461997B1, “Triazole sulfones having herbicidal activity” (Monsanto Technology LLC, priority 1999, dated 2002)

Experiments:
[1] = test system: LAMPU (purple deadnettle); assay: Pre-emergence herbicidal activity, cool season; format: in vivo, Lamium purpureum; details: lowest tested rate with 80% or greater inhibition; rates 300, 100, 30, 10 g/ha; about 14 days
Procedure, shortened: (§1)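 Seeds sown in sterilised fertilised topsoil received surface-applied compound in 50:50 acetone/water, typically at 300, 100, 30 and 10 g/ha, then greenhouse-grown at 30/21° C (warm-season species) or 18/13° C (cool-season species). Percent inhibition versus untreated plants was scored at about 14 days, giving GR80; an asterisk marks activity short of 80% at the top rate.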

PANDI (fall panicum) = assay: Pre-emergence herbicidal activity, warm season; format: in vivo, Panicum dichotomiflorum; details: GR80 = lowest tested rate (300, 100, 30, 10 g/ha) with 80% or greater inhibition; approx. 14 days after treating; 30/21° C.
Procedure, shortened: as §1

SORVU (shattercane) = assay: Pre-emergence herbicidal activity, warm season; format: in vivo, Sorghum vulgare; details: GR80 = lowest tested rate (300, 100, 30, 10 g/ha) with 80% or greater inhibition; approx. 14 days after treating; 30/21° C.
Procedure, shortened: as §1

SINAR (wild mustard) = assay: Pre-emergence herbicidal activity, cool season; format: in vivo, Sinapis arvensis; details: lowest tested rate with 80% or greater inhibition; rates 300, 100, 30, 10 g/ha; about 14 days
Procedure, shortened: as §1

[2] = test system: AEGCY (jointed goatgrass); assay: Post-emergence herbicidal activity, cool season; format: in vivo, Aegilops cylindrica; details: abraded plants sprayed at 300, 100, 30 and 10 g/ha; about 14 days after treatment
Experimental: (§2) In another set of tests, the post-emergence activity of compounds of this invention was evaluated on the cool season species listed above. The following procedure was used.
(§3) A pre-prepared topsoil mixture (described above) was placed in a pot and compacted to a depth of 1.0 to 1.25 cm from the top of the pot. Seeds of each of several monocotyledonous and dicotyledonous annual plant species were placed on top of the soil. The seeds were covered with a mixture of 50% topsoil and 50% Rediearth™ in sufficient quantity to level-fill the pots. The pots were then placed on a greenhouse bench and subirrigated as needed.
(§4) When plants growing from the seeds had emerged and reached a suitable growth stage for post-emergence treatment, typically 9 to 14 days after planting, above-ground parts of the plants were subjected to a pre-treatment involving abrasion to create greater opportunity for foliar uptake of subsequently applied compounds. Abrasion was performed using garnet 200w particles applied with a Sears Craftsman hand-held sandblaster operated at approximately 850 kPa (50 psig) pressure.
(§5) A known amount of each test compound dissolved or suspended in an appropriate organic solvent was diluted with a 50:50 mix of acetone and water and applied to the plants by spraying with a standard spray nozzle in a spray volume of […] at a spray pressure of 511 kPa (30 psig). Only the compounds of Examples 1, 8-15 and 17-22 were included in post-emergence tests. Application rates for these compounds were 300, 100, 30 and 10 g/ha. Control plants were abraded but not sprayed.
(§6) After treatment the plants were placed in a greenhouse with an 18/13° C. day/night temperature regime and were subsequently watered as needed for growth. Approximately 14 days after treatment, the plants were observed and herbicidal efficacy recorded as percent inhibition by comparison with control plants. GR80 values were assigned for each compound as described above for the pre-emergence tests.

LOLMG (annual ryegrass) [3] = assay: Post-emergence herbicidal activity, cool season; format: in vivo, Lolium multiflorum; details: abraded plants sprayed at 300, 100, 30 and 10 g/ha; about 14 days after treatment
Experimental: as §2, §3, §4, §5, §6

POLCO (wild buckwheat) = assay: Pre-emergence herbicidal activity, cool season; format: in vivo, Polygonum convolvulus; details: lowest tested rate with 80% or greater inhibition; rates 300, 100, 30, 10 g/ha; about 14 days
Procedure, shortened: (§7)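 Each pot received seeds on sterilized fertilized topsoil, a soil cover, and a surface spray of compound (300–10 g/ha, acetone/water 50:50). Plants grew about 14 days at 30/21 °C (PANMI, DIGSA) or 18/13 °C (ALOMY, POLCO) before inhibition was rated against untreated pots to give GR80.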

BROTE (downy brome) [4] = assay: Post-emergence herbicidal activity, cool season; format: in vivo, Bromus tectorum; details: abraded plants sprayed at 300, 100, 30 and 10 g/ha; about 14 days after treatment
Experimental: as §2, §3, §4, §5, §6

ALOMY (blackgrass) [5] = assay: Post-emergence herbicidal activity, cool season; format: in vivo, Alopecurus myosuroides; details: abraded plants sprayed at 300, 100, 30 and 10 g/ha; about 14 days after treatment
Experimental: as §2, §3, §4, §5, §6

SASKR (russian thistle) = assay: Pre-emergence herbicidal activity, cool season; format: in vivo, Salsola kali; details: lowest tested rate with 80% or greater inhibition; rates 300, 100, 30, 10 g/ha; about 14 days
Procedure, shortened: as §1

[6] = test system: VERPE (creeping speedwell); assay: Pre-emergence herbicidal activity, cool season; format: in vivo, Veronica persicaria; details: lowest tested rate with 80% or greater inhibition; rates 300, 100, 30, 10 g/ha; about 14 days
Procedure, shortened: as §1

[7] = test system: GALAP (catchweed bedstraw); assay: Pre-emergence herbicidal activity, cool season; format: in vivo, Galium aparine; details: lowest tested rate with 80% or greater inhibition; rates 300, 100, 30, 10 g/ha; about 14 days
Procedure, shortened: as §1

[8] = test system: CHEAL (common lambsquarters); assay: Pre-emergence herbicidal activity, warm season; format: in vivo, Chenopodium album; details: GR80 = lowest tested rate (300, 100, 30, 10 g/ha) with 80% or greater inhibition; approx. 14 days after treating; 30/21° C.
Procedure, shortened: as §1

[9] = test system: AGSST (creeping bentgrass); assay: Post-emergence herbicidal activity, cool season; format: in vivo, Agrostis stolonifera; details: abraded plants sprayed at 300, 100, 30 and 10 g/ha; about 14 days after treatment
Experimental: as §2, §3, §4, §5, §6

AVEFA (wild oat) = assay: Post-emergence herbicidal activity, cool season; format: in vivo, Avena fatua; details: abraded plants sprayed at 300, 100, 30 and 10 g/ha; about 14 days after treatment
Experimental: as §2, §3, §4, §5, §6

[10] = test system: AGSST (creeping bentgrass); assay: Pre-emergence herbicidal activity, cool season; format: in vivo, Agrostis stolonifera; details: GR80 = lowest tested rate (300, 100, 30, 10 g/ha) with 80% or greater inhibition; approx. 14 days after treating; 18/13° C.
Procedure, shortened: as §1

STEME (common chickweed) = assay: Pre-emergence herbicidal activity, cool season; format: in vivo, Stellaria media; details: lowest tested rate with 80% or greater inhibition; rates 300, 100, 30, 10 g/ha; about 14 days
Procedure, shortened: as §1

[11] = test system: AGRRE (quackgrass (seedling)); assay: Post-emergence herbicidal activity, cool season; format: in vivo, Elymus repens; details: abraded plants sprayed at 300, 100, 30 and 10 g/ha; about 14 days after treatment
Experimental: as §2, §3, §4, §5, §6

SETVI (green foxtail) [12] = assay: Post-emergence herbicidal activity, cool season; format: in vivo, Setaria viridis; details: abraded plants sprayed at 300, 100, 30 and 10 g/ha; about 14 days after treatment
Experimental: as §2, §3, §4, §5, §6

LOLMG (annual ryegrass) [13] = assay: Pre-emergence herbicidal activity, cool season; format: in vivo, Lolium multiflorum; details: GR80 = lowest tested rate (300, 100, 30, 10 g/ha) with 80% or greater inhibition; approx. 14 days after treating; 18/13° C.
Procedure, shortened: as §1

BROTE (downy brome) [14] = assay: Pre-emergence herbicidal activity, cool season; format: in vivo, Bromus tectorum; details: GR80 = lowest tested rate (300, 100, 30, 10 g/ha) with 80% or greater inhibition; approx. 14 days after treating; 18/13° C.
Experimental: (§8) Tables 5 to 8 summarize results of tests conducted as described below to determine the pre-emergence herbicidal activity, in the form of a GR80 value, of illustrative compounds of this invention. […] Compounds of the invention were typically applied at rates of 300, 100, 30, and 10 g/ha. Where herbicidal activity was evident but 80% inhibition was not achieved at the highest rate tested, an asterisk (*) is shown in the following tables.
(§9) The pre-emergence tests were conducted by the following procedure. Topsoil was sieved to pass through a 1.27 cm screen. Fertilizer was added to the topsoil and the mixture was then sterilized by heating. The topsoil mixture was placed in a pot and compacted to a depth of 1.0 to 1.25 cm from the top of the pot. Seeds of each of several monocotyledonous and dicotyledonous annual plant species were placed on top of the soil. Additional soil was subsequently placed over the seeds to level-fill the pot. A known amount of each test compound dissolved or suspended in an appropriate organic solvent was diluted with a 50:50 mix of acetone and water and applied to the surface of the soil. After treatment the plants were placed in a greenhouse where they received 0.64 cm of overhead irrigation. All subsequent watering consisted of a light overhead mist and/or subirrigation as needed for germination and growth. Tables 5 and 6 below relate to warm season plant species which were placed after pre-emergence treatment in a greenhouse with a 30/21° C. day/night temperature regime. Tables 7 and 8 below relates to cool season plant species placed after pre-emergence treatment in a greenhouse or growth chamber with an 18/13° C. day/night temperature regime.
(§10) Approximately 14 days after planting and treating, the plants were observed and herbicidal efficacy recorded as percent inhibition by comparison with untreated plants.
(§11) The plant species usually regarded as weeds which were utilized in the tests are identified in the tables below according to the following legend, in which “d” indicates a dicotyledonous species and “m” a monocotyledonous species. All monocotyledonous species included in the tests herein are grasses.

ALOMY (blackgrass) [15] = assay: Pre-emergence herbicidal activity, cool season; format: in vivo, Alopecurus myosuroides; details: GR80 = lowest tested rate (300, 100, 30, 10 g/ha) with 80% or greater inhibition; approx. 14 days after treating; 18/13° C.
Procedure, shortened: as §7

SOLNI (black nightshade) = assay: Pre-emergence herbicidal activity, warm season; format: in vivo, Solanum nigrum; details: GR80 = lowest tested rate (300, 100, 30, 10 g/ha) with 80% or greater inhibition; approx. 14 days after treating; 30/21° C.
Procedure, shortened: as §1

SETVI (green foxtail) [16] = assay: Pre-emergence herbicidal activity, cool season; format: in vivo, Setaria viridis; details: GR80 = lowest tested rate (300, 100, 30, 10 g/ha) with 80% or greater inhibition; approx. 14 days after treating; 18/13° C.
Procedure, shortened: as §1

ECHCG (barnyardgrass) = assay: Pre-emergence herbicidal activity, warm season; format: in vivo, Echinochloa crus-galli; details: GR80 = lowest tested rate (300, 100, 30, 10 g/ha) with 80% or greater inhibition; approx. 14 days after treating; 30/21° C.
Procedure, shortened: as §1

[17] = test system: PANMI (wild proso millet); assay: Pre-emergence herbicidal activity, warm season; format: in vivo, Panicum miliaceum; details: GR80 = lowest tested rate (300, 100, 30, 10 g/ha) with 80% or greater inhibition; approx. 14 days after treating; 30/21° C.
Procedure, shortened: as §7

[18] = test system: AGRRE (quackgrass (seedling)); assay: Pre-emergence herbicidal activity, cool season; format: in vivo, Elymus repens; details: GR80 = lowest tested rate (300, 100, 30, 10 g/ha) with 80% or greater inhibition; approx. 14 days after treating; 18/13° C.
Experimental: as §8, §9, §10, §11

SETFA (giant foxtail) = assay: Pre-emergence herbicidal activity, warm season; format: in vivo, Setaria faberi; details: GR80 = lowest tested rate (300, 100, 30, 10 g/ha) with 80% or greater inhibition; approx. 14 days after treating; 30/21° C.
Procedure, shortened: as §1

## CCN(CC)C(=O)n1cnc(S(=O)(=O)C(F)(F)SCCOC(=O)c2ccccc2)n1 [Example 22]
[1]
  Pre-emergence activity GR80, LAMPU: [empty]
PANDI (fall panicum)
  Pre-emergence activity (GR80) PANDI: 300 g/ha
SORVU (shattercane)
  Pre-emergence activity (GR80) SORVU: * (activity observed, at least at highest rate, but <80% inhibition)
SINAR (wild mustard)
  Pre-emergence activity GR80, SINAR: [empty]
[2]
  Post-emergence activity GR80, AEGCY: [empty]
LOLMG (annual ryegrass) [3]
  Post-emergence activity GR80, LOLMG: [empty]
POLCO (wild buckwheat)
  Pre-emergence activity GR80, POLCO: [empty]
BROTE (downy brome) [4]
  Post-emergence activity GR80, BROTE: [empty]
ALOMY (blackgrass) [5]
  Post-emergence activity GR80, ALOMY: [empty]
SASKR (russian thistle)
  Pre-emergence activity GR80, SASKR: [empty]
[6]
  Pre-emergence activity GR80, VERPE: 300 g/ha
[7]
  Pre-emergence activity GR80, GALAP: [empty]
[8]
  Pre-emergence activity (GR80) CHEAL: 300 g/ha
[9]
  Post-emergence activity GR80, AGSST: [empty]
AVEFA (wild oat)
  Post-emergence activity GR80, AVEFA: [empty]
[10]
  Pre-emergence activity (GR80) AGSST: 300 g/ha
STEME (common chickweed)
  Pre-emergence activity GR80, STEME: [empty]
[11]
  Post-emergence activity GR80, AGRRE: [empty]
SETVI (green foxtail) [12]
  Post-emergence activity GR80, SETVI: [empty]

## CCSC(F)(F)S(=O)(=O)c1ncn(C(=O)N(C)CCOC)n1 [Example 52]
LOLMG (annual ryegrass) [13]
  Pre-emergence activity (GR80) LOLMG: 300 g/ha
BROTE (downy brome) [14]
  Pre-emergence activity (GR80) BROTE: 300 g/ha
[1]
  Pre-emergence activity GR80, LAMPU: [empty]
ALOMY (blackgrass) [15]
  Pre-emergence activity (GR80) ALOMY: 300 g/ha
SOLNI (black nightshade)
  Pre-emergence activity (GR80) SOLNI: 300 g/ha
SETVI (green foxtail) [16]
  Pre-emergence activity (GR80) SETVI: 300 g/ha
ECHCG (barnyardgrass)
  Pre-emergence activity (GR80) ECHCG: 300 g/ha
PANDI (fall panicum)
  Pre-emergence activity (GR80) PANDI: 30 g/ha
SINAR (wild mustard)
  Pre-emergence activity GR80, SINAR: 300 g/ha
[17]
  Pre-emergence activity (GR80) PANMI: 100 g/ha
POLCO (wild buckwheat)
  Pre-emergence activity GR80, POLCO: [empty]
SASKR (russian thistle)
  Pre-emergence activity GR80, SASKR: 100 g/ha
[18]
  Pre-emergence activity (GR80) AGRRE: 100 g/ha
[6]
  Pre-emergence activity GR80, VERPE: 30 g/ha
[7]
  Pre-emergence activity GR80, GALAP: [empty]
[10]
  Pre-emergence activity (GR80) AGSST: 300 g/ha
STEME (common chickweed)
  Pre-emergence activity GR80, STEME: [empty]
SETFA (giant foxtail)
  Pre-emergence activity (GR80) SETFA: 300 g/ha
